“Also recorded” adds a separate entry of the source.
Experiments:
[1] = system: normal heart; experiment: In vivo phage homing to normal heart (phage per gram heart / phage per gram brain); design: species or system mice; conditions: for Enrichment (relative enrichment compared with insertless phage): Targeted tissue Normal Heart, n=6 or 7 animals; for Enrichment (relative enrichment compared with insertless phage) / Homing to normal heart (in words): individual phage; for Enrichment in normal heart as compared to brain: normal heart versus control brain tissue, phage expressing the peptide; for Homing to normal heart (in words): normal animals
Description: Individual phage (5×10^9 TU) were injected intravenously and allowed to circulate for 5 minutes prior to perfusion of the vasculature and harvesting of the heart and brain. The number of phage recovered from the heart (per gram) was normalized by the number of phage recovered from the brain (per gram). Fd-tet was a phage without any additional peptide insert. […] The data shown are the logarithmic means and logarithmic standard errors of the multiple experiments.
In vivo panning was performed to identify phage that selectively home to normal coronary endothelium by injection of phage libraries and isolation of individual phage from the heart as follows. […] Both linear (X7 (SEQ ID NO: 1)) and cyclic (CX7C (SEQ ID NO: 13), CX9C (SEQ ID NO: 14), and CX11C (SEQ ID NO: 15)) libraries were used, where “C” indicates cysteine and “XN” indicates the given number of individually selected amino acids.
Libraries were administered independently with the initial titer of the various libraries. In vivo phage selection was performed as described in Pasqualini and Ruoslahti, Nature 380:364–366 (1996), with a few modifications. In both normal and ischemic targeting, 2.5×10^8 transducing units of the initial phage libraries were injected intravenously into the jugular vein. After 5 minutes of phage circulation in vivo, the heart was arrested by intraventricular injection of a hyperkalemic (30 mM KCl), hypothermic solution of DMEM, and the vasculature cleared of blood by perfusion with 5–10 ml of hyperkalemic DMEM through a left ventricular cannula. After the heart and brain were harvested, homogenized and weighed, phage were rescued by infection with K91 Kan bacteria. For the second and third rounds of selection, 200 normal or 100 ischemic clones were picked from the previous round and individually grown to saturation. Cultures were then pooled, phage particles purified and 10^10 TU of a pool reinjected into similarly treated mice.
(§1) All data were calculated as the ratio of the number of phage obtained per gram of heart tissue to the number of phage obtained per gram of brain tissue. Means, standard deviations, standard errors and parametric statistics were based on the assumption that this ratio is derived from a log-normal distribution.

[2] = system: ischemic/reperfused myocardium; experiment: In vivo phage homing to ischemia-reperfusion injured heart (phage per gram heart / phage per gram brain); design: species or system mice; conditions: for Enrichment (relative enrichment compared with insertless phage): Targeted tissue Ischemic Heart; for Enrichment (relative enrichment compared with insertless phage) / Homing to ischemic/reperfused myocardium (in words): individual phage; for Homing to ischemic/reperfused myocardium (in words): ischemia-reperfusion injured animals
Description: Individual phage obtained from screening in ischemic-reperfused hearts were injected at 5×10^9 TU intravenously into normal animals (open squares) or animals subject to 30 minutes myocardial ischemia by occlusion of the left anterior descending (LAD) coronary artery followed by 30 minutes reperfusion (closed circles). Phage were allowed to circulate for 5 minutes prior to perfusion of the vasculature and harvesting of the heart and brain. The number of phage recovered from the heart (per gram) was normalized by the number of phage recovered from the brain (per gram). […] The data shown are-the logarithmic means and logarithmic standard errors of the multiple experiments.
The number of phage recovered from the heart (per gram) was normalized by the number of phage recovered from the brain (per gram). The data shown are the logarithmic means and logarithmic standard errors for six to seven individual experiments.
as §1
Ischemia-reperfusion was performed as follows using large male CD-1 mice weighing about 40 grams to facilitate the surgical protocol. Briefly, mice were anesthetized by an intramuscular injection of a mixture of xylazine (50 mg/kg) and ketamine (50 mg/kg) and subsequently intubated with an endotracheal tube and ventilated with a mixture of oxygen and room air using a Harvard Apparatus (0.05 ml; 100 bpm). The heart was exposed with a left thoracotomy, and a 7-0 suture was placed under the left anterior descending (LAD) coronary artery; the vessel was occluded by tying a knot over a small piece of polyethylene tubing (PE50). Ischemia was confirmed by cyanosis of the myocardium. After 30 minutes of occlusion, the knot was cut and blood flow restored to the region. Reperfusion was allowed to proceed for 30 minutes before phage targeting to allow for some vascular changes while limiting neutrophil recruitment to the area.

[3] = system: ischemic left ventricle; experiment: Phage recovered from injured left ventricle versus right ventricle and septum, ischemic hearts; type: in vivo, mice; conditions: animals after myocardial ischemia-reperfusion
Description: The number of phage recovered from the left ventricle (g^−1) was normalized by the number of phage recovered from the right ventricle and septum (g^−1). The overall data shown are a logarithmic mean and logarithmic standard deviation for 47 normal and 35 ischemic hearts. The data for phage bearing SEQ ID NO: 10 (R13) are for six individual animals each.
Ischemia-reperfusion was performed as follows using large male CD-1 mice weighing about 40 grams to facilitate the surgical protocol. Briefly, mice were anesthetized by an intramuscular injection of a mixture of xylazine (50 mg/kg) and ketamine (50 mg/kg) and subsequently intubated with an endotracheal tube and ventilated with a mixture of oxygen and room air using a Harvard Apparatus (0.05 ml; 100 bpm). The heart was exposed with a left thoracotomy, and a 7-0 suture was placed under the left anterior descending (LAD) coronary artery; the vessel was occluded by tying a knot over a small piece of polyethylene tubing (PE50). Ischemia was confirmed by cyanosis of the myocardium. […]
As a further test of specificity for homing to ischemic heart, phage homing to the injured left ventricle was compared to homing to the normal right ventricle and septum. […] When the ratio of phage accumulation in the left ventricle only is calculated relative to accumulation in the brain, the preferential accumulation of […] […]

Row | Substance | Enrichment (relative enrichment compared with insertless phage) [1] | Enrichment in normal heart as compared to brain [1] | Enrichment (relative enrichment compared with insertless phage) [2] | Homing to normal heart (in words) [1] | Homing to ischemic/reperfused myocardium (in words) [2] | further results
1 | CLHRGNSC (phage displayed) [SEQ ID NO: 9] | ~2 fold | at least two-fold | ~2 fold |  |  | Enrichment (relative enrichment compared with insertless phage) ([1]; listed as 9): 2-fold
2 | CRSWNKADNRSC (phage displayed) [SEQ ID NO: 10] |  |  | 5 fold | did not target the normal heart |  | Preferential homing to the ischemic left ventricle versus right ventricle (in words) [3]: more phage were recovered from the injured left ventricle than the right ventricle; also recorded: preferentially homed to the ischemic left ventricle as compared to the uninjured right ventricle; Enrichment (relative enrichment compared with insertless phage) ([2]; listed as 10): 5-fold; Phage accumulation in the left ventricle only relative to accumulation in the brain ([2]; ischemia-reperfusion injured hearts, left ventricle only): 7 fold
3 | GGGVFWQ (phage displayed) [SEQ ID NO: 2] | ~5 fold |  |  | binds to normal heart; also recorded: strongly targeted the normal myocardium | remained enriched | Enrichment (relative enrichment compared with insertless phage) ([1]; listed as 2): 5-fold
4 | HGRVRPH (phage displayed) [SEQ ID NO: 3] | ~2 fold | at least two-fold |  |  |  | Enrichment (relative enrichment compared with insertless phage) ([1]; listed as 3): 2-fold
5 | RPGRLNG (phage displayed) [SEQ ID NO: 8] |  |  |  | did not home to normal heart; also recorded: clearly did not target the normal myocardium | did not change | 
6 | VVLVTSS (phage displayed) [SEQ ID NO: 4] | ~2 fold | at least two-fold |  |  |  | Enrichment (relative enrichment compared with insertless phage) ([1]; listed as 4): 2-fold

— patent publication US7144860B2, “Heart homing conjugates” (priority 1999, dated 2006)
